Test results: US4927919A, “Chartreusin derivatives and salts thereof” (Ishihara Sangyo Kaisha, Ltd., priority 1985, dated 1990)

Legend:
[1] = Acute toxicity (LD50, single intravenous administration); parameters: species or system day mice; conditions: mouse, in vivo, mice, single i.v.
Excerpt: In Table 15 are shown acute toxicity values (LD50, mg/kg) in day mice in the case of intravenously administering (once) each of the compounds of this invention in the form of preparations shown in the Preparation Examples shown in Table 16.

B-16 melanoma [2] = assay: Antitumor activity against B-16 melanoma (i.v. drug); type: in vivo, BDF1 mice; conditions: 60-day observation
Method: BDF1 mice were implanted intraperitoneally with a B-16 melanoma cell suspension in an amount of 0.5 ml/mouse, and each drug to be tested was administered intravenously on the first, fifth and ninth days after the implantion. […] The T/C (%) was calculated in the same manner as aforementioned (1--1).
The B-16 melanoma cell suspension was prepared as follows. Tumor fragment, maintained by subcutaneous passages in C57BL/6 mice, were aseptically removed and passed through a sterile stainless-steel mesh. Thus obtained tumor was dispersed in a culture medium or physiological saline in an amount of 9 ml per 1 g of tumor.

P-388 leukemia cells = assay: Antitumor activity against P-388 leukemia cells (i.p. implanted, i.v. drug); type: in vivo, BDF1 mice; conditions: for response vs control in vivo at 20 mg/kg / response vs control in vivo at 40 mg/kg: Mus musculus, P388, iv, 720 h, read-out: T/C of MST; for response vs control in vivo at 20 mg/kg: dose b: 20 mg/kg/d × 3 (days 1, 5, 9); for response vs control in vivo at 40 mg/kg: dose c: 40 mg/kg/d × 3 (days 1, 5, 9)
Method: BDF1 mice were implanted intraperitoneally with P-388 leukemia cells at a rate of 1×10^6 cells/mouse, and each drug to be tested was administered intravenously on the first, fifth and ninth days, or on the first and fifth days after the implantation. […] The T/C (%) was calculated based on the following equation: [formula]
The drugs tested were as follows: solutions prepared by dissolving each of compound Nos. 34, 36 and 43 to 46 in physiological saline; suspension or solutions prepared by dissolving each of compound Nos. 35, 38 and 49 to 55 in dimethylacetamide, followed by adding thereto a small amount of a surface active agent (e.g., Tween-80) and then physiological saline; and suspension or solutions prepared by mixing each of the other compounds and a small amount of a surface active agent (e.g., Tween-80), followed by adding thereto physiological saline.

L-1210 leukemia cells = assay: Antitumor activity against L-1210 leukemia cells (i.p. implanted, i.v. drug); type: in vivo, BDF1 mice; conditions: 30-day observation
Method: BDF1 mice were implanted intraperitoneally with L-1210 leukemia cells at a rate of 1×10^5 cells/mouse, and each drug to be tested was administered intravenously on the first, fifth and ninth days after the implantation. […] The T/C (%) was calculated in the same manner as aforementioned (1--1).
The drugs tested were suspensions or solutions which prepared by mixing each compound to be tested and a small amount of a surface active agent (e.g., Tween-80), followed by adding thereto physiological saline.

[3] = Intestinal excretion percentage of drugs; type: in vivo; conditions: DDY mice, i.v. 40 mg/kg-b.w., 2 hours
Method: Each drug to be tested was administered to DDY mice intravenously at a dose of 40 mg/kg-b.w., and after 2 hours, contents of the small intestine and the large intestine and feces were extracted with a mixed solvent of chloroform and methanol. The extract was concentrated and each compound to be tested was quantitatively determined by high-speed liquid chromatography.
The drug tested was solution which prepared by dissolving the compound No. 17 in a small amount of dimethylacetoamide, followed by adding thereto a small amount of a surface active agent (e.g., Tween-80 ) and physiological saline.

B-16 melanoma [4] = conditions: cancer inoculated i.p., drug i.p.; cited from earlier work
P-388 leukemia = conditions: cancer inoculated i.p., drug i.p.; cited from earlier work
cancer = conditions: different sites; cited from earlier work
L-1210 leukemia = conditions: cancer inoculated i.p., drug i.p.; cited from earlier work
[5] = in vivo; cited from earlier work

Compound	LD50 ([1]; Preparation Example 2) [mg/kg]	T/C (%) of MST (B-16 melanoma [2]; 60 mg/kg × 3 (days 1, 5, 9)) [%]	response vs control in vivo at 20 mg/kg (P-388 leukemia cells; i.v., 30-day observation) [%]	response vs control in vivo at 40 mg/kg (P-388 leukemia cells; i.v., 30-day observation) [%]	T/C (%) MST (L-1210 leukemia cells; 40 mg/kg × 3 (days 1, 5, 9)) [%]	LD50 ([1]; Preparation Example 1) [mg/kg]	also measured
COC1C(O)C(C)OC(OC2C(Oc3cccc4c(OC(=O)c5cccn5C)c5c(=O)oc6ccc(C)c7c(=O)oc(c34)c5c67)OC(C)C3OC(c4ccccc4)OC32)C1O (stereo not shown) [Compound 2]	≥ 60	141	189	230	243		
COC1C(O)C(C)OC(OC2C(Oc3cccc4c(OC(=O)c5cccs5)c5c(=O)oc6ccc(C)c7c(=O)oc(c34)c5c67)OC(C)C3OC(C)(C)OC32)C1O (stereo not shown) [Compound 10]				162			LD50 ([1]; Preparation Example 4): ≥ 80 mg/kg; T/C of MST (P-388 leukemia cells; i.v., dose f: 80 mg/kg/d × 3 (days 1, 5, 9), 30-day observation): 207%; T/C (%) MST (L-1210 leukemia cells; 80 mg/kg × 3 (days 1, 5, 9)): 140%
COC1C(O)C(C)OC(OC2C(Oc3cccc4c(OC(=O)c5cc6ccccc6[nH]5)c5c(=O)oc6ccc(C)c7c(=O)oc(c34)c5c67)OC(C)C3OC(c4ccccc4)OC32)C1O (stereo not shown) [Compound 17, 6-O-(2-indolyl-carbonyl)-3',4'-O-benzylidene-chartreusin]		141	199	255	181	≥ 60	Intestinal excretion percentage [(total amount of excretion/dose) × 100] [3]: 5.4%
CCn1cc(C(=O)Oc2c3cccc(OC4OC(C)C5OC(c6ccccc6)OC5C4OC4OC(C)C(O)C(OC)C4O)c3c3oc(=O)c4c(C)ccc5oc(=O)c2c3c54)c(=O)c2ccc(C)nc21 (stereo not shown) [Compound 33, 6-O-{3-(1,4-dihydro-1-ethyl-7-methyl-4-oxo-1,8-naphthyridinyl)-carbonyl}-3',4'-O-benzylidene-chartreusin]			218	274		≥ 40	T/C (%) of MST (B-16 melanoma [2]; 40 mg/kg × 3 (days 1, 5, 9)): 142%
COC1C(O)C(C)OC(OC2C(Oc3cccc4c(OC(=O)c5cccs5)c5c(=O)oc6ccc(C)c7c(=O)oc(c34)c5c67)OC(C)C3OC(c4ccccc4)OC32)C1O (stereo not shown) [Compound 11, 6-O-(2-thienyl-carbonyl)-3',4'-O-benzylidene-chartreusin]	≥ 60	143	217				
COC1C(O)C(C)OC(OC2C(Oc3cccc4c(OC(=O)c5c(-c6ccccc6)noc5C)c5c(=O)oc6ccc(C)c7c(=O)oc(c34)c5c67)OC(C)C3OC(c4ccccc4)OC32)C1O (stereo not shown) [Compound 14, 6-O-{4-(5-methyl-3-phenylisoxazolyl)-carbonyl}-3',4'-O-benzylidene-chartreusin]		143	207	250	208	≥ 60	
COC1C(O)C(C)OC(OC2C(Oc3cccc4c(OC(=O)c5ccco5)c5c(=O)oc6ccc(C)c7c(=O)oc(c34)c5c67)OC(C)C3OC(c4ccccc4)OC32)C1O (stereo not shown) [Compound 6]	≥ 60	159	199	217			
CO[C@H]1[C@@H](O)[C@@H](C)O[C@H](O[C@H]2[C@H](Oc3cccc4c(O)c5c(=O)oc6ccc(C)c7c(=O)oc(c34)c5c67)O[C@H](C)[C@H](O)[C@@H]2O)[C@@H]1O [Chartreusin, chartreusin]							effect against B-16 melanoma (in words) (B-16 melanoma [4]): effective; effect against P-388 leukemia (in words) (P-388 leukemia): effective; T/C (%) (P-388 leukemia cells; comparison, chartreusin suspension in 0.2M Na2HPO4 / N,N-dimethylacetamide (4:1)): 105%; effect when site of cancer inoculation and site of administration were different (in words) (cancer): not effective at all; Intestinal excretion percentage [(total amount of excretion/dose) × 100] [3]: 37.6%; effect against L-1210 leukemia (in words) (L-1210 leukemia): effective; biliary excretion relative to absorption to tissues (in words) [5]: biliary excretion of chartreusin essentially has the precedence over absorption thereof to tissues
COC1C(N)C(C)OC(OC2C(Oc3cccc4c(OC(=O)c5ccc(Cl)cc5)c5c(=O)oc6ccc(C)c7c(=O)oc(c34)c5c67)OC(C)C3OC(c4ccccc4)OC32)C1O (stereo not shown) [Compound 52]			167				LD50 ([1]; Preparation Example 6): ≥ 20 mg/kg
